US9475775B2, “Benzazepine dicarboxamide compounds” (Hoffmann-La Roche Inc., priority 2015, dated 2016)

Columns and labels:
[1] = biological target: human TLR8 (Homo sapiens (Human), UniProt Q9NR97); test: HEK-Blue human TLR8 cells, NF-κB SEAP reporter assay; type: cell-based; settings: stimulation for 20 hours
Description: (§1) For TLR8 and TLR7 activity testing, HEK-Blue human TLR8 or TLR7 cells (Invivogen, San Diego, Calif., USA) are used, respectively. These cells are designed for studying the stimulation of human TLR8 or TLR7 by monitoring the activation of NF-κB. A SEAP (secreted embryonic alkaline phosphatase) reporter gene is placed under the control of the IFN-b minimal promoter fused to five NF-κB and AP-1-binding sites. Therefore the reporter expression is regulated by the NF-κB promoter upon stimulation of human TLR8 or TLR7 for 20 hours. The cell culture supernatant SEAP reporter activity was determined using Quanti Blue kit (Invivogen, San Diego, Ca, USA) at a wavelength of 640 nm, a detection medium that turns purple/blue in the presence of alkaline phosphatase. EC50 values were determined using Activity Base analysis (ID Business Solution, Limited).

[2] = biological target: human TLR7 (Homo sapiens (Human), UniProt Q9NYK1); test: HEK-Blue human TLR7 cells, NF-κB SEAP reporter assay; type: cell-based; settings: stimulation for 20 hours
Description: as §1

human TLR8, sequence (Q9NR97 27-1041): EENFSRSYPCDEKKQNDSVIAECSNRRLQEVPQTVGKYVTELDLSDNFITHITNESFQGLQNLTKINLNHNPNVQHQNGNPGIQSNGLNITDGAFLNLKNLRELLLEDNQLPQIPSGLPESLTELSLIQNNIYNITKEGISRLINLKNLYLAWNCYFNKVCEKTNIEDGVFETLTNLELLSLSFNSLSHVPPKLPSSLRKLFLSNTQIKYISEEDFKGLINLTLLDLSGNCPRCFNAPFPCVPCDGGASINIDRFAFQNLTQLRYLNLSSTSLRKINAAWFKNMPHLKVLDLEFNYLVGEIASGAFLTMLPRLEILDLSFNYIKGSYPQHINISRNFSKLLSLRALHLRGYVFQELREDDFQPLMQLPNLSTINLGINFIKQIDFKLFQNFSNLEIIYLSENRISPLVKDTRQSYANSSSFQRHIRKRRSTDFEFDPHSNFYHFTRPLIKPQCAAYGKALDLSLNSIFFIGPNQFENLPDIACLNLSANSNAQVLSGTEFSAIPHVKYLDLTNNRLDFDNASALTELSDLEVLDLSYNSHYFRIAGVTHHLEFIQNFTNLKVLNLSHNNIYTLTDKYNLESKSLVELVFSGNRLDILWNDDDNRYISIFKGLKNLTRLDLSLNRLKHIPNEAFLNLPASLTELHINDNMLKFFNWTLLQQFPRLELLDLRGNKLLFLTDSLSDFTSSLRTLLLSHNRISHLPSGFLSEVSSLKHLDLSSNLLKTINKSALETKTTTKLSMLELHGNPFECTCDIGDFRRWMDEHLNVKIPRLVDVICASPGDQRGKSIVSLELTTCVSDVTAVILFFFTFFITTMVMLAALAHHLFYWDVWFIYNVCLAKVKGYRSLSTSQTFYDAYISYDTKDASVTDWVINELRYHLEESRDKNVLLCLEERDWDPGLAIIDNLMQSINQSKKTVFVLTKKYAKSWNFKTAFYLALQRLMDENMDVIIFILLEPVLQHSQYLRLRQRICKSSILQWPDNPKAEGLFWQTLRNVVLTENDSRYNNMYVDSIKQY
human TLR7, sequence (Q9NYK1 27-1049): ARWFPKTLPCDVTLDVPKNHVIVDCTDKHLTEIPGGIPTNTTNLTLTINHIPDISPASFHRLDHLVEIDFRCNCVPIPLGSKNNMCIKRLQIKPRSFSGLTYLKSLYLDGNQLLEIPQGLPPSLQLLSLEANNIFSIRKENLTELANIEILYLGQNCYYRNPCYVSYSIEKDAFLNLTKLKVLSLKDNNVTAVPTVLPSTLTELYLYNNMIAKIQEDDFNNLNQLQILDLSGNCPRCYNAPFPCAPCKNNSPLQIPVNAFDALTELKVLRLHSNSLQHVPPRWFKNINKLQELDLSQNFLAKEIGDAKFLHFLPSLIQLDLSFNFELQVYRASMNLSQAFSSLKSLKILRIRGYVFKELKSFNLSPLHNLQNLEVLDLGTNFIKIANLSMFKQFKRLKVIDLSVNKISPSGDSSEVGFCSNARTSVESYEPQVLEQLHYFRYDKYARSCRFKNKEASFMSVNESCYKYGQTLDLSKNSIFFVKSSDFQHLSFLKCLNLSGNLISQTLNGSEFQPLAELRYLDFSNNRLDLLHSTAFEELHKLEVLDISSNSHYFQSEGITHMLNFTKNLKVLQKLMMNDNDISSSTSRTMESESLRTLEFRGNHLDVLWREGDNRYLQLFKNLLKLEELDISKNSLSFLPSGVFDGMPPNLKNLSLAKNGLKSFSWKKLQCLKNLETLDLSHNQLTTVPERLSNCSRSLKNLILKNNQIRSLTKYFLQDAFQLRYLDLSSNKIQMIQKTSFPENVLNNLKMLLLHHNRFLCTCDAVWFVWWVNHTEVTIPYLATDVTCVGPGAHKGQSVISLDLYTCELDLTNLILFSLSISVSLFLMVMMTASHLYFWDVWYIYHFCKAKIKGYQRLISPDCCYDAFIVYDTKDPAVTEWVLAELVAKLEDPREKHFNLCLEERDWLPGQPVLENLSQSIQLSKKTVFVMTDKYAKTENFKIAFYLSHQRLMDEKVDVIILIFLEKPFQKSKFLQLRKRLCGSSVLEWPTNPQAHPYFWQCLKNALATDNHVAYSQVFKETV

For `CCCN(CCC)C(=O)C1=Cc2ccc(C(=O)Nc3cncc(CCCCCCN)c3)cc2N=C(N)C1` [Example 74, 2-Amino-N8-[5-(6-aminohexyl)-3-pyridyl]-N4,N4-dipropyl-3H-1-benzazepine-4,8-dicarboxamide], the EC50 [1] was 0.027 µM and the EC50 [2] was > 100 µM.
For `CCCN(CCC)C(=O)C1=Cc2ccc(C(=O)Nc3ccc(Cl)cc3)cc2N=C(N)C1` [Example 10, 2-Amino-N8-(4-chlorophenyl)-N4,N4-dipropyl-3H-1-benzazepine-4,8-dicarboxamide], the EC50 [1] was 0.002 µM and the EC50 [2] was > 100 µM.
In the case of `CCCN(CCC)C(=O)C1=Cc2ccc(C(=O)Nc3ccccc3)cc2N=C(N)C1` [Example 4, 2-Amino-N8-phenyl-N4,N4-dipropyl-3H-1-benzazepine-4,8-dicarboxamide], the EC50 [1] is reported as 0.007 µM and the EC50 [2] is reported as > 100 µM.
With `CCCN(CCC)C(=O)C1=Cc2ccc(C(=O)Nc3cc(C)cc(C)c3)cc2N=C(N)C1` [Example 23, 2-Amino-N8-(3,5-dimethylphenyl)-N4,N4-dipropyl-3H-1-benzazepine-4,8-dicarboxamide] the EC50 [1] was 0.001 µM and the EC50 [2] was > 100 µM.
In the case of `CCCN(CCC)C(=O)C1=Cc2ccc(C(=O)Nc3cccc(CCN)c3)cc2N=C(N)C1` [Example 54, 2-Amino-N8-[3-(2-aminoethyl)phenyl]-N4,N4-dipropyl-3H-1-benzazepine-4,8-dicarboxamide], the EC50 [1] is reported as 0.003 µM and the EC50 [2] is reported as > 100 µM.
In the case of `CCCN(CCC)C(=O)C1=Cc2ccc(C(=O)Nc3cncc(OC)c3)cc2N=C(N)C1` [Example 40, 2-Amino-N8-(5-methoxy-3-pyridyl)-N4,N4-dipropyl-3H-1-benzazepine-4,8-dicarboxamide], the EC50 [1] is reported as 0.001 µM and the EC50 [2] is reported as > 100 µM.
With `CCCN(CCC)C(=O)C1=Cc2ccc(C(=O)Nc3cncs3)cc2N=C(N)C1` [Example 9, 2-Amino-N4,N4-dipropyl-N8-thiazol-5-yl-3H-1-benzazepine-4,8-dicarboxamide] the EC50 [1] was 0.003 µM and the EC50 [2] was > 100 µM.
For `CCCN(CCC)C(=O)C1=Cc2ccc(C(=O)Nc3ccc(CN)cc3)cc2N=C(N)C1` [Example 24, 2-Amino-N8-[4-(aminomethyl)phenyl]-N4,N4-dipropyl-3H-1-benzazepine-4,8-dicarboxamide], the EC50 [1] was 0.009 µM and the EC50 [2] was > 100 µM.
Compound `CCCN(CCC)C(=O)C1=Cc2ccc(C(=O)Nc3cccnc3)cc2N=C(N)C1` [Example 1, 2-Amino-N4,N4-dipropyl-N8-(3-pyridyl)-3H-1-benzazepine-4,8-dicarboxamide] has an EC50 [1] of 0.001 µM and an EC50 [2] of 80.8 µM.
In the case of `CCCN(CCC)C(=O)C1=Cc2ccc(C(=O)Nc3cncc(CCc4ccccc4)c3)cc2N=C(N)C1` [Example 69, 2-Amino-N8-[5-(2-phenylethyl)-3-pyridyl]-N4,N4-dipropyl-3H-1-benzazepine-4,8-dicarboxamide], the EC50 [1] is reported as 0.008 µM and the EC50 [2] is reported as > 100 µM.
For `CCCN(CCC)C(=O)C1=Cc2ccc(C(=O)Nc3cccc(Cl)c3)cc2N=C(N)C1` [Example 32, 2-Amino-N8-(3-chlorophenyl)-N4,N4-dipropyl-3H-1-benzazepine-4,8-dicarboxamide], the EC50 [1] was 0.002 µM and the EC50 [2] was > 100 µM.
With `CCCN(CCCOCCOCCN)C(=O)C1=Cc2ccc(C(=O)Nc3cccc(C)c3)cc2N=C(N)C1` [Example 49, 2-amino-N4-[3-[2-(2-aminoethoxy)ethoxy]propyl]-N8-(m-tolyl)-N4-propyl-3H-1-benzazepine-4,8-dicarboxamide] the EC50 [1] was 0.031 µM and the EC50 [2] was > 100 µM.
For `CCCN(CCC)C(=O)C1=Cc2ccc(C(=O)Nc3ccc(F)c(CCN)c3)cc2N=C(N)C1` [Example 63, 2-Amino-N8-[3-(2-aminoethyl)-4-fluoro-phenyl]-N4,N4-dipropyl-3H-1-benzazepine-4,8-dicarboxamide], the EC50 [1] was 0.011 µM and the EC50 [2] was > 100 µM.
